In article PMC7828211, “LysM Receptor-Like Kinase LYK9 of Pisum Sativum L. May Regulate Plant Responses to Chitooligosaccharides Differing in Structure” (International Journal of Molecular Sciences, 2021):
Read-outs that look alike come from different tables or passages of the source.

Tests used:
PsLYK9-ECD = biological target: T1, PsLYK9-ECD (Lathyrus oleraceus, UniProt A0A9D5AD18); assay: microscale thermophoresis; assay type: binding; details: 50 mM Tris pH 7.4, 10 mM MgCl2, 150 mM NaCl, 0.05% Tween 20, 25 °C; 20 nM RED-tris-NTA labelled protein; read-out: Kd, μM (±SD)
T1 construct: gene KIW84_053210; corresponds to residues 31-235), GP67 signal in vector, 6xHis tag, Sf9 cells, predicted 23 kDa, about 35 kDa on blot; RED-tris-NTA labelled
T1 sequence (A0A9D5AD18 26-230): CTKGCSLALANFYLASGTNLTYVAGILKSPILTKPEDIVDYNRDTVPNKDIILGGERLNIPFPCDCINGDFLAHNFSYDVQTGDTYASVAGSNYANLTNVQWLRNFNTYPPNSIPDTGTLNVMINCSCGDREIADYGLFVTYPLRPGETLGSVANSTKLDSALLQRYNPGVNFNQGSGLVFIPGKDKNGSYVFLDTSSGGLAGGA
From the text: microscale thermophoresis on PsLYK9-ECD

PsLYR4-ECD = biological target: T2, PsLYR4-ECD; assay: microscale thermophoresis; assay type: binding, Pisum sativum; details: 50 mM Tris pH 7.4, 10 mM MgCl2, 150 mM NaCl, 0.05% Tween 20, 25 °C, 20 nM RED-tris-NTA labelled protein
T2 construct: gene LYR4; corresponds to residues 8-257), GP67 signal in vector, 6xHis tag, Sf9 cells, predicted 27 kDa, about 32 kDa on blot; RED-tris-NTA labelled
From the text: microscale thermophoresis on PsLYR4-ECD

| Compound | Kd (PsLYK9-ECD) | Kd (PsLYR4-ECD; read-out: Kd, μM (±SD)) | Kd (PsLYR4-ECD; read-out: Kd) |
| --- | --- | --- | --- |
| N[C@H]1[C@H](O[C@H]2[C@H](O)[C@@H](N)[C@H](O[C@H]3[C@H](O)[C@@H](N)[C@H](O[C@H]4[C@H](O)[C@@H](N)[C@H](O[C@H]5[C@H](O)[C@@H](N)C(O)O[C@@H]5CO)O[C@@H]4CO)O[C@@H]3CO)O[C@@H]2CO)O[C@H](CO)[C@@H](O)[C@@H]1O (stereo partly shown) [CO5-DA] | 76 ± 25 µM | 45 ± 20 µM |  |
| CC(=O)N[C@H]1[C@H](O[C@H]2[C@H](O)[C@@H](NC(C)=O)[C@H](O[C@H]3[C@H](O)[C@@H](NC(C)=O)C(O)O[C@@H]3CO)O[C@@H]2CO)O[C@H](CO)[C@@H](O[C@@H]2O[C@H](CO)[C@@H](O[C@@H]3O[C@H](CO)[C@@H](O)[C@H](O)[C@H]3NC(C)=O)[C@H](O)[C@H]2NC(C)=O)[C@@H]1O (stereo partly shown) [CO5] | 5 ± 1.9 µM |  |  |
| CC(=O)N[C@H]1[C@H](O[C@H]2[C@H](O)[C@@H](NC(C)=O)C(O)O[C@@H]2CO)O[C@H](CO)[C@@H](O[C@@H]2O[C@H](CO)[C@@H](O[C@@H]3O[C@H](CO)[C@@H](O)[C@H](O)[C@H]3NC(C)=O)[C@H](O)[C@H]2NC(C)=O)[C@@H]1O (stereo partly shown) [CO4] | 2.1 ± 0.6 µM |  |  |

More lines, now with the values ahead:

| Kd (PsLYK9-ECD) | Kd (PsLYR4-ECD; read-out: Kd, μM (±SD)) | Kd (PsLYR4-ECD; read-out: Kd) | Compound |
| --- | --- | --- | --- |
| 31 ± 11 µM | 19 ± 13 µM |  | N[C@H]1[C@H](O[C@H]2[C@H](O)[C@@H](N)[C@H](O[C@H]3[C@H](O)[C@@H](N)[C@H](O[C@H]4[C@H](O)[C@@H](N)[C@H](O[C@H]5[C@H](O)[C@@H](N)[C@H](O[C@H]6[C@H](O)[C@@H](N)[C@H](O[C@H]7[C@H](O)[C@@H](N)C(O)O[C@@H]7CO)O[C@@H]6CO)O[C@@H]5CO)O[C@@H]4CO)O[C@@H]3CO)O[C@@H]2CO)O[C@H](CO)[C@@H](O)[C@@H]1O (stereo partly shown) [CO7-DA] |
| 26 ± 15 µM |  | 8 ± 5 µM | CO8-DA |
| 42 ± 23 µM | 22 ± 11 µM |  | N[C@H]1[C@H](O[C@H]2[C@H](O)[C@@H](N)[C@H](O[C@H]3[C@H](O)[C@@H](N)[C@H](O[C@H]4[C@H](O)[C@@H](N)[C@H](O[C@H]5[C@H](O)[C@@H](N)[C@H](O[C@H]6[C@H](O)[C@@H](N)C(O)O[C@@H]6CO)O[C@@H]5CO)O[C@@H]4CO)O[C@@H]3CO)O[C@@H]2CO)O[C@H](CO)[C@@H](O)[C@@H]1O (stereo partly shown) [CO6-DA] |
